Columns and labels:
[1] = Stress test: stability in premix mixture, stored at 40° C. and 70% humidity for 4 weeks, retention of vitamin content; assay type: physicochemical; conditions: for Retention Active ingredient content after 4-week premix test: Table 3c; for Retention Canthaxanthin after 4-week test: Table 5c
Description: The stress test for the vitamins is configured such that specimens of 100 mg in each case of the formulation produced and 4 g of premix mixture are weighed into glass vessels. The premix mixture consists of 50% by weight of fine lime (particle size <1000 μm), 20% by weight of wheat bran (particle size <1000 μm), 20% by weight of 50% silica-supported choline chloride (particle size <1000 μm) and 10% by weight of trace element mixture (particle size 100-500 μm). The trace element mixture is composed of 46.78% by weight of FeSO4x7H2O (100-500 μm), 37.43% by weight of CuSO4x5H2O (100-500 μm), 11.79% by weight of ZnO (<500 μm), 3.61% by weight of MnO and 0.39% by weight of CoCO3. After addition of all ingredients, the specimens are mixed cautiously, with performance of the mixing mechanically or else by hand, and these specimens (A) are stored in a climate-controlled chamber at 40° C. and 70% humidity for 4 weeks. […]
For this purpose, specimens each of 100 mg of the formulation produced and 4 g of premix mixture are weighed out in glass vessels (50 mL glass vials). The premix mixture consists of 50% by weight of fine lime (particle size <1000 μm), 20% by weight of wheat bran (particle size <1000 μm), 20% by weight of 50% silica-supported choline chloride (particle size <1000 μm) and 10% by weight of trace element mixture (particle size 100-500 μm), said trace element mixture consisting of 46.78% by weight of FeSO4x7H2O (100-500 μm), 37.43% by weight of CuSO4x5H2O (100-500 μm), 11.79% by weight of ZnO (<500 μm), 3.61% by weight of MnO and 0.39% by weight of CoCO3. After addition of all ingredients, the specimens are mixed cautiously, where the mixing can be performed mechanically or else by hand, and these specimens (A) are stored in a climate-controlled chamber at 40° C. and 70% humidity for 4 weeks. An identical test is conducted with a comparative sample (B) which is of identical composition but which comprises, rather than propyl gallate, the same amount of ethoxyquin. […] The ratio of the contents after (A2), (B2) and before the storage (A1) and (B1) are used here to calculate the retention (A2/A1) or (B2/B1) of the samples. For the formulations of the invention, a quotient (A2/A1):(B2/B1) of at least 0.75 is determined here. Preferably, for the formulations of the invention, a quotient of at least 1 is obtained.
The stability of the particles thus produced was tested in a stress test. For this purpose, specimens each of 100 mg of the particles produced and 4 g of premix mixture were weighed into 50 mL glass bottles. The premix mixture consisted of 50% by weight of fine lime (particle size <1000 μm), 20% by weight of wheat bran (particle size <1000 μm), 20% by weight of 50% silica-supported choline chloride (particle size <1000 μm) and 10% by weight of trace element mixture (particle size 100-500 μm), and the trace element mixture of 46.78% by weight of FeSO4x7H2O (100-500 μm), 37.43% by weight of CuSO4x5H2O (100-500 μm), 11.79% by weight of ZnO (<500 μm), 3.61% by weight of MnO and 0.39% by weight of CoCO3. After addition of all ingredients, the specimens were carefully mixed by hand. These specimens were stored in a climate-controlled chamber at 40° C. and 70% air humidity for 4 weeks. […]

[2] = Particle size after dissolution in water by photon correlation spectroscopy (Malvern Zetasizer Nano ZSP); assay type: physicochemical; conditions: dry powder of Example 3e, PCS
[3] = as above; assay type: physicochemical; conditions: dry powder with propyl gallate added to the dispersion (Examples 1, 3b, 3c, 3d), PCS
Description: The particle size is determined by means of a Malvern Zetasizer Nano ZSP.
30 g of citranaxanthin were suspended in 240 g of isopropanol together with 1.1 g of ascorbyl palmitate and, with setting of the pressure-limiting valve to 30 bar, mixed continuously with 390 g of isopropanol in a mixing chamber A. At a metering rate of 6 L/h on the suspension side and of 9 L/h on the solvent side, a mixing temperature of 170° C. was established in the mixing chamber A. After a residence time of 0.3 second, the molecularly disperse solution was mixed in mixing chamber B with a solution of 32 g of gelatin, 71.4 g of sucrose and 50 g of glucose syrup in 4000 g of water at a throughput rate of 100 L/h. After the solvent had been removed under reduced pressure in a distillation apparatus, an active ingredient dispersion was obtained, to which 8 g of sunflower oil and 8 g of propyl gallate were added. The propyl gallate was predissolved here in 200 mL of water and adjusted to pH 7 with NaOH. Subsequently, the dispersion was converted to a stable, water-soluble dry powder by spray drying. After dissolution in water, by photon correlation spectroscopy (PCS), a particle size of 386 nm (standard deviation 142.5, polydispersity index PDI 0.185, D(95): 660 nm) was measured (Malvern Zetasizer Nano ZSP).

[4] = impurity from ethoxyquin preparation remaining in animal feed; cited from earlier work

CCOC(=O)/C(C)=C/C=C/C(C)=C/C=C/C=C(C)/C=C/C=C(C)/C=C/C1=C(C)CCCC1(C)C [C30 ester]
Retention Active ingredient content after 4-week premix test ([1]; propyl gallate 0% by wt., dispersion): 6.7%
Retention Active ingredient content after 4-week premix test ([1]; propyl gallate 2% by wt., dispersion): 13.83%
Retention Active ingredient content after 4-week premix test ([1]; propyl gallate 4% by wt., dispersion): 42.7%
Retention Active ingredient content after 4-week premix test ([1]; propyl gallate 6% by wt., dispersion): 57.7%
Retention Active ingredient content after 4-week premix test ([1]; propyl gallate 8% by wt., dispersion): 64.1%
Retention Active ingredient content after 4-week premix test ([1]; propyl gallate 10% by wt., dispersion): 58.5%
Retention Active ingredient content after 4-week premix test ([1]; propyl gallate 12% by wt., dispersion): 54.3%
Retention Active ingredient content after 4-week test ([1]; Table 3e, ethoxyquin 4% by wt., dispersion): 28.6%
Retention Active ingredient content after 4-week test ([1]; Table 3e, propyl gallate 4% by wt., dispersion): 33.4%
Retention Active ingredient content after 4-week test ([1]; Table 3e, propyl gallate 4% by wt., dispersion (pH adjustment before spraying from pH 8.5 to pH 6.8 with H2SO4)): 39.8%
Retention Active ingredient content after 4-week test ([1]; Table 3e, propyl gallate 6% by wt., dispersion): 44.4%
Retention Active ingredient content after 4-week test ([1]; Table 3e, propyl gallate 8% by wt., dispersion): 43.4%
Retention Active ingredient content after 4-week test ([1]; Table 4b, D,L-α tocopherol 4% by wt. (in active ingredient phase) + propyl gallate 4% by wt. (in protective colloid phase)): 29.2%
Retention Active ingredient content after 4-week test ([1]; Table 4b, mixed tocopherol 4% by wt. (in active ingredient phase) + propyl gallate 4% by wt. (in protective colloid phase)): 57.5%
Retention Canthaxanthin after 4-week test ([1]; propyl gallate 0% by wt., mixed tocopherol 4% by wt.): 11%
Retention Canthaxanthin after 4-week test ([1]; propyl gallate 4% by wt., mixed tocopherol 0% by wt.): 42.7%
Retention Canthaxanthin after 4-week test ([1]; propyl gallate 4% by wt., mixed tocopherol 4% by wt.): 61.7%
D(95) [2]: 683 nm
particle size [2]: 373 nm
polydispersity index PDI [2]: 0.203
particle size [3]: 280 nm
polydispersity index PDI [3]: 0.181

CCOc1ccc(N)cc1 [p-phenetidine]
mutagenicity [4]: possibly a mutagen
